The values below come from ChEMBL document CHEMBL1201862, “PubChem BioAssay data set” (2004).

Molecules are shown by their SMILES. Calls of active or inactive are those of the source. Cut-off read from the data, not from the text of the source, for most assays here: actives have a measured EC50 and inactives only a lower limit.

In experiment [1] the target is T1, Heat shock factor protein 1 (Mus musculus, UniProt P38532).
T1 sequence (P38532 whole entry): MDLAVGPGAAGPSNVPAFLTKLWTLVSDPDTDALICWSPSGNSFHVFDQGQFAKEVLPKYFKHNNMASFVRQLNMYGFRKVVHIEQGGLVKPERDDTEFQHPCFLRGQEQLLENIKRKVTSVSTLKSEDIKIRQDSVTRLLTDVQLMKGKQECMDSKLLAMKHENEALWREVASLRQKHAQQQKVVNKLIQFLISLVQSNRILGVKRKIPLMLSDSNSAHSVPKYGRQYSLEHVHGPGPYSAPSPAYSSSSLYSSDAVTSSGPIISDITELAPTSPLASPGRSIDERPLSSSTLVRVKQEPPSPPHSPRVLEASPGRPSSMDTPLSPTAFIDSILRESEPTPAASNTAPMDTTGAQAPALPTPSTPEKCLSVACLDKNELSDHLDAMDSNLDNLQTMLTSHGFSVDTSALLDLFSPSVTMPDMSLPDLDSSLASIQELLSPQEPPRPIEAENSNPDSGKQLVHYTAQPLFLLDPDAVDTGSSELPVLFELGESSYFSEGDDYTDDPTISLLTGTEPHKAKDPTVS
In words: HSF1 potentiators in luciferase reporter cells, confirmation, cell-based, NIH3T3, luminescence, dose retest (AID 435004).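 Note: stress induced by proteasome inhibitor MG132 added 30 min after compound; luciferase reporter driven by HSF1 response element in NIH3T3 cells; actives raise luminescence as potentiators of the MG132 stress response.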 In kind it is functional. For orientation: In a reporter assay the amount or activity of a reporter protein is the signal.

In experiment [2] the target is T2, RNA-binding protein pos-1 (Caenorhabditis elegans, UniProt G5EF15).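 Note: purified POS-1 fused to maltose binding protein made in E. coli; potency of compounds blocking POS-1 binding to fluorescent RNA.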
T2 sequence (G5EF15 whole entry): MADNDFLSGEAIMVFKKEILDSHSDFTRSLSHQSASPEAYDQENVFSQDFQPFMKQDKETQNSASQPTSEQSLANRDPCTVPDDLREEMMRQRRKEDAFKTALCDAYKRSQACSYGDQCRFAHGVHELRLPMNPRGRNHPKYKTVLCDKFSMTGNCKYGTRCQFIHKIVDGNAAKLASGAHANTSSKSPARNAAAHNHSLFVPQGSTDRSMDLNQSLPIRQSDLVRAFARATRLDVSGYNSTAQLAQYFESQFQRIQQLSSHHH
Put plainly: inhibitors of POS-1/mex-3 RNA binding, dose response, biochemical, fluorescence polarization (AID 1964). (In general: Polarisation of emitted light reports the rotation of a fluorescent probe.)

Experiment [3] deals with T3, Zinc finger protein mex-5 (Caenorhabditis elegans, UniProt Q9XUB2).
T3 sequence (Q9XUB2 whole entry): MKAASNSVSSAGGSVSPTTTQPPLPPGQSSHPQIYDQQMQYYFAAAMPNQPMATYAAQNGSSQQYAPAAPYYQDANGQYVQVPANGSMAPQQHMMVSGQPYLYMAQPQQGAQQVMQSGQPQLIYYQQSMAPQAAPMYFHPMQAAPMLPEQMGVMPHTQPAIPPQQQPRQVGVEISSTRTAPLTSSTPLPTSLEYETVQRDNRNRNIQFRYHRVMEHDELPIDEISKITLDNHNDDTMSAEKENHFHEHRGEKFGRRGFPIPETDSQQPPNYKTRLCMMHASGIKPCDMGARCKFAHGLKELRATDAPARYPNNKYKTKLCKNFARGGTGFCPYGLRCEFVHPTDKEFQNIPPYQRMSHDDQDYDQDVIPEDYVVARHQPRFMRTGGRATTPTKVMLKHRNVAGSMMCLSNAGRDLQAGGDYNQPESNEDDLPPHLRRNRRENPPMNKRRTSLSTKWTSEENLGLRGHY
Put plainly: MEX-5/TCR-2 RNA interaction inhibitors, dose response, biochemical, C. elegans, fluorescence polarization (AID 1960).

Experiment [4] relates to Streptococcus sp. 'group A'. Put plainly: growth inhibition of control SK(-) GAS strain, dose response, counter-screen for streptokinase expression inhibitor project, luminescence, kanamycin, BacTiterGlo, confirmation (AID 1900). The class given is functional, organism-based.
Another experiment deals with Streptococcus. In words: Group A Streptococcus viability loss, dose response, counter-screen for streptokinase expression inhibitor project, luminescence, BacTiterGlo (AID 1915).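 Note: potency for reduction of bacterial viability or growth.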 The class given is functional, organism-based. Background: A counterscreen serves to expose hits that act by an unwanted route or on another target.
For the next experiment, the target named is T4, Cytochrome P450 1A2 (Homo sapiens, UniProt P05177).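 Note: PubChem cytochrome P450 panel assay, CYP1A2 panel member.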
T4 sequence (P05177 whole entry): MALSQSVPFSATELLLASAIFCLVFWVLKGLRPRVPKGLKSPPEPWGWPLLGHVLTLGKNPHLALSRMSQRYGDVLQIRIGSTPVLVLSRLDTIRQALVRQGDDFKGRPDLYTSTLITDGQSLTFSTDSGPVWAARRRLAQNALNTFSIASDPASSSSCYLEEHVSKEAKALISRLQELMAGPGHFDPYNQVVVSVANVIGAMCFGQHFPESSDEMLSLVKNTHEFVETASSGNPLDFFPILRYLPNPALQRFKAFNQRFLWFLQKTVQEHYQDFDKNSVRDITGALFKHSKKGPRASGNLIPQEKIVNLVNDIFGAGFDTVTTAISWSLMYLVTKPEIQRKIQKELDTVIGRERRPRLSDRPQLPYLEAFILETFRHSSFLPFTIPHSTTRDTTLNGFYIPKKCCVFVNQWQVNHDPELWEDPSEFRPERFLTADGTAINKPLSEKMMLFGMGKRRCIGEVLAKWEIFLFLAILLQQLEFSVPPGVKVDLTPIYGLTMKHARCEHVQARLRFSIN

The target in the next experiment is Cytochrome P450 3A4 (Homo sapiens, UniProt P08684).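 Note: CYP3A4 tested as one member of a cytochrome P450 panel screen.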
Chain of Cytochrome P450 3A4 (P08684 whole entry): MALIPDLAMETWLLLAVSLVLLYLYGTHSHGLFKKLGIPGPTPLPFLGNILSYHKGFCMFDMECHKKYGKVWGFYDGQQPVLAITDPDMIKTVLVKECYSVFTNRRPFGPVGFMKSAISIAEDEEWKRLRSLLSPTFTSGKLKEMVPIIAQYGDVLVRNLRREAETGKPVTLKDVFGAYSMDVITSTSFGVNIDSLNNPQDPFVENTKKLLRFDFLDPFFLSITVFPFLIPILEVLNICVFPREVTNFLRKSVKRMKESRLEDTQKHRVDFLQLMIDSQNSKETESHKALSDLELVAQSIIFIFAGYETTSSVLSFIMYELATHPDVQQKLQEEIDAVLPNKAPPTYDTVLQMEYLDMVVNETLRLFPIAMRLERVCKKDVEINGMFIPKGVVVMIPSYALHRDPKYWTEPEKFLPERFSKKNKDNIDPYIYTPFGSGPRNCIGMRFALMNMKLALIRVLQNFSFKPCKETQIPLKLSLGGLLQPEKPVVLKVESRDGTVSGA
Experiment [5] deals with T5, Corticotropin-releasing factor receptor 2/Corticotropin-releasing factor-binding protein (Homo sapiens, UniProt P24387+Q13324).
T5 sequence (Q13324 whole entry): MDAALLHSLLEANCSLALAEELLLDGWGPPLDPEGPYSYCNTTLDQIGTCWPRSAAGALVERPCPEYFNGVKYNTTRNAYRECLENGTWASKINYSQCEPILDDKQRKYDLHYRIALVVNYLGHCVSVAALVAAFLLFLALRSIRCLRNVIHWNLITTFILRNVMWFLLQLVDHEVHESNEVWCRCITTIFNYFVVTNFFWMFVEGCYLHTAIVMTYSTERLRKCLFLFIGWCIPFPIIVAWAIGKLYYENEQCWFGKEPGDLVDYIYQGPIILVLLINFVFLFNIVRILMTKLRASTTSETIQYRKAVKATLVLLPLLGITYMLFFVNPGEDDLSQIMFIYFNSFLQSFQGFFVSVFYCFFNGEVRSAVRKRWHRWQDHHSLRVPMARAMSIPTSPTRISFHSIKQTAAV
T5 sequence (P24387 whole entry): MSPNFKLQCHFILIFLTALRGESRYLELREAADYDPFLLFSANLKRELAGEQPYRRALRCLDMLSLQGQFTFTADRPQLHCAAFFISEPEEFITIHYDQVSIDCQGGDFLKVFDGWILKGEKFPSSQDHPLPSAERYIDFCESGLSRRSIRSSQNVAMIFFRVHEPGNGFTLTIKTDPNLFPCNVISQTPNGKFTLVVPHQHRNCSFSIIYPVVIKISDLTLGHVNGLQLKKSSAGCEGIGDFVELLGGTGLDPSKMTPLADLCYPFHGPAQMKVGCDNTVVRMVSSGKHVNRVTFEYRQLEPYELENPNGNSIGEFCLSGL
Put plainly: activators of CRF receptor 2 with binding protein – uHTS hits, confirmation (AID 602473). The following applies: read-out: EC50_Mean. In kind it is functional.

The target in the next experiment is Cytochrome P450 2C9 (Homo sapiens, UniProt P11712).
Chain of Cytochrome P450 2C9 (P11712 whole entry): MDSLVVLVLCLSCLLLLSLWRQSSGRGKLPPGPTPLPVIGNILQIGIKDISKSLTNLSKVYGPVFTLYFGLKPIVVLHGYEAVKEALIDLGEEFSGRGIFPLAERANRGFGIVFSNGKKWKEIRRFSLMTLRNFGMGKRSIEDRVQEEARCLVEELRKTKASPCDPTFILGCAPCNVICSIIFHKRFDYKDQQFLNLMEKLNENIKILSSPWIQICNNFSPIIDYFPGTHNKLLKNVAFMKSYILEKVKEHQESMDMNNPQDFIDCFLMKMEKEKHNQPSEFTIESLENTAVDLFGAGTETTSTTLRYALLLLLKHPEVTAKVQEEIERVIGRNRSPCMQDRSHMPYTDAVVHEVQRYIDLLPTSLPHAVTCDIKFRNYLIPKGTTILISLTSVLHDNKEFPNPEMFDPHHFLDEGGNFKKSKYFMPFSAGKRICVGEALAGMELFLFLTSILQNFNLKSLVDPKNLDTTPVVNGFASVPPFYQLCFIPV

For the compound `Cc1cccn2c(=O)c3c(nc12)N1CCC(Cc2ccccc2)CC1C1(C3)C(=O)N(C)C(=O)N(C)C1=O` (centres undefined), in experiment [1], the EC50 was > 260 µM (inactive).

Turning to `CCCCn1cnc2c(oc3nc4c(cc32)CCCC4)c1=O`, the EC50 in experiment [1] was > 260 µM (inactive).

As to `Cc1ccc(S(=O)(=O)n2c(=O)oc3ccccc32)cc1`, the EC50 in experiment [1] is > 260 µM (inactive).

Turning to `O=C1NC(=O)C(=Cc2ccc(-c3ccc(S(=O)(=O)N4CCOCC4)cc3)o2)C(=O)N1`, the EC50 in experiment [2] is 40.5 µM (active); in [3] it was 34.7 µM (active).

Consider `O=C(N/N=C/c1c(O)ccc2ccccc12)Nc1ccccc1`, for which the EC50 in [4] was 8.29 µM (active); in experiment [3] it was > 300 µM (not active); in the experiment with Streptococcus it was 8.39 µM (active).

By AC50 is commonly meant the concentration giving half of the maximal activity seen. As to `COc1ccc(C(OCCN2CCC[C@@H](C(=O)O)C2)(c2ccc(OC)cc2)c2ccc(OC)cc2)cc1`, the AC50 on Cytochrome P450 1A2 and at Cytochrome P450 3A4 was 31.6 µM (inconclusive) in each case.

Turning to `COc1cc(OC)c2c(c1Cl)O[C@@]1(C2=O)[C@H](C)CC(=O)C[C@@H]1OC`, the AC50 at Cytochrome P450 1A2 is 15.8 µM (inconclusive); at Cytochrome P450 3A4 it was 12.6 µM (inconclusive).

In the case of `O=C(NCc1cccc(F)c1)c1cccc2c1C(=O)c1ccc(N3CCCC3)cc1S2(=O)=O`, the EC50 in experiment [5] is 6.84 µM (active).

For `CCOC(=O)N1CCN(CC(=O)c2ccc(O)cc2O)CC1`, the EC50 in experiment [2] was 157 µM (active); in experiment [3], 40.7 µM (active).

As to `Cc1cccc(/C=C(\C(=O)C(=O)O)c2ccc3ccccc3n2)c1`, the EC50 in experiment [2] is 27.2 µM (active); in experiment [3], 22.9 µM (active).

For `O=C(O)c1ccccc1N(c1ccccc1)c1ccccc1`, the EC50 in experiment [2] and in experiment [3] was > 300 µM (not active) each time.

Consider `CCOC(=O)C1=C(C)NC(=S)NC1c1cccc(O)c1` (centres undefined) [MONASTROL], for which the AC50 is 39.8 µM (inconclusive) at Cytochrome P450 1A2 and 20 µM (inconclusive) on Cytochrome P450 2C9.

As to `O=S(=O)(c1ccccc1)N1CCCC1c1nc2ccccc2s1` (centres undefined), the AC50 on Cytochrome P450 1A2 was 25.1 µM (inconclusive); at Cytochrome P450 3A4 it was 20 µM (inconclusive).

Turning to `COC(=O)N1CCC2(CCCN(C(=O)Nc3cccc(F)c3)C2)CC1`, at Cytochrome P450 3A4, the AC50 was 25.1 µM (inconclusive).

Turning to `CN(C)c1ccc(/C=N/NC2=NS(=O)(=O)c3ccccc32)cc1`, the EC50 in [2] was 39.3 µM (active); in experiment [3], > 300 µM (inconclusive).

With `O=C(NNC(=O)c1ccccc1[N+](=O)[O-])/C(O)=C/C(=O)c1ccccc1`, the values for the EC50 in experiment [2] and in experiment [3] were 70 µM (active) and 1.11 µM (active), respectively.

`CC(C)CNC(=O)C1Nc2ccc(OC(F)(F)F)cc2C2C=CCC12` (centres undefined): the EC50 in [2] and in experiment [3] was > 300 µM (not active) in each case.

With `Cc1cc(C)n(CCCNCC(O)c2ccccc2)n1` (centres undefined), the AC50 is 39.8 µM (inconclusive) at Cytochrome P450 1A2 and 35.5 µM (inconclusive) on Cytochrome P450 3A4.

For the compound `O=C1NC(=O)N(Cc2ccccc2)C(=O)/C1=C/NNC(=O)c1ccncc1`, the EC50 in [2] is 43.9 µM (active); in experiment [3], 93.9 µM (active).

For `COc1ccc(/C=N/n2cncn2)cc1COc1ccc(NC(C)=O)cc1`, the EC50 in experiment [1] was > 260 µM (inactive).

Take `CCOC(=O)c1c(/N=C/C2C(=O)NC(=S)NC2=O)sc(C)c1C`: the EC50 in experiment [2] is > 300 µM (not active); in experiment [3], > 300 µM (inconclusive).

Take `Cc1occc1C(=O)NNS(=O)(=O)c1ccc([N+](=O)[O-])cc1`: in experiment [1], the EC50 is > 260 µM (inactive).

Regarding `O=C(c1ccco1)N1CCc2ccccc21`, the EC50 in experiment [2] is > 300 µM (not active); in experiment [3], 169 µM (active).

For `C[C@@]1(C(NC(=O)c2cccs2)c2ccc(-c3ccccc3)cc2)C[C@H]1C1CCCCC1` (some centres undefined), the AC50 at Cytochrome P450 3A4 was 20 µM (inconclusive).

On to `CCn1c(SCC(=O)c2ccc(Cl)cc2)nnc1-c1ccoc1C`, for which the EC50 in experiment [1] is > 260 µM (inactive).

For the compound `COc1ccccc1N1CCN(C2CCCCC2NS(=O)(=O)c2ccc(Cl)cc2)CC1` (centres undefined), the EC50 in experiment [5] was 4.3 µM (active).

On to `CNc1nc(Nc2ccc(C)c(Cl)c2)nc(N)c1[N+](=O)[O-]`, for which, in [1], the EC50 is 82.2 µM (active).

Take `O=C(c1cccc(F)c1)N1CCC2(CCCN(Cc3ccncc3)C2)CC1`: the AC50 at Cytochrome P450 1A2 is 15.8 µM (inconclusive); at Cytochrome P450 3A4, 3.98 µM (inconclusive).

On to `CC(C)(C)c1ccc(-c2nnc(SCc3ccc(Cl)cc3)n2-c2cccc(C(F)(F)F)c2)cc1`, for which the AC50 on Cytochrome P450 1A2, at Cytochrome P450 3A4 and on Cytochrome P450 2C9 was 3.16 µM (inconclusive) each time.

Turning to `Cc1cccn2c(=O)c3cc(S(=O)(=O)c4ccccc4)c(=N)n(CC4CCCO4)c3nc12` (centres undefined), the EC50 in experiment [2] is 5.7 µM (inconclusive); in experiment [3], > 300 µM (inconclusive).

With `CCC[C@@H]1C[C@@]1(CCC)C(NC(=O)c1ccccc1)c1cccc(Cl)c1` (some centres undefined), the results for the AC50 at Cytochrome P450 3A4 and on Cytochrome P450 2C9 were 3.98 µM (inconclusive) and 20 µM (inconclusive), respectively.

For `C/C(CCC(=O)OC[C@@H]1O[C@H](C#Cc2ccccc2)C=C[C@@H]1Oc1ccc(C)cc1)=N/OC[C@@H](O)COCc1ccco1`, the AC50 at Cytochrome P450 2C9 was 1.58 µM (inconclusive).

For the compound `CCc1ccc2c(-c3cccc(Cl)c3)nc(=O)n(CC)c2n1`, the AC50 on Cytochrome P450 3A4 is 31.6 µM (inconclusive); on Cytochrome P450 2C9, 39.8 µM (inconclusive).

As to `CN1CCN(c2ncc3nc(-c4cn(C)c5ccccc45)c(=O)n(C)c3n2)CC1`, the AC50 at Cytochrome P450 1A2 was 31.6 µM (inconclusive); on Cytochrome P450 3A4 it was 25.1 µM (inconclusive); at Cytochrome P450 2C9, 12.6 µM (inconclusive).
